Source: PMC9127750, “Structure-based design of CDC42 effector interaction inhibitors for the treatment of cancer” (Cell reports, 2022)
Values joined by “and” are separate entries in the source; they are usually repeats but may differ in a detail not shown here. Equal values may be shown once.

System: WM3248 melanoma cells, 486 antibodies
Test: Reverse phase protein arrays (RPPA);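 on RPPA ACC1.R.C: ratio of treated to vehicle (0 µM) normalized linear protein signal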;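 on RPPA AMPK.a2 pS345.R.V: ratio of treated to vehicle (0 µM) normalized linear protein signal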;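 on RPPA AMPKa pT172.R.C: ratio of treated to vehicle (0 µM) normalized linear protein signal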;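 on RPPA ASNS.R.V: ratio of treated to vehicle (0 µM) normalized linear protein signal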;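 on RPPA AceCS1.R.V: ratio of treated to vehicle (0 µM) normalized linear protein signal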;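 on RPPA Akt1.R.V: ratio of treated to vehicle (0 µM) normalized linear protein signal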;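 on RPPA Atg5.R.C: ratio of treated to vehicle (0 µM) normalized linear protein signal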
Assay type: cell-based, Human
Text: Pellets were snap frozen in liquid nitrogen and shipped to MD Anderson Cancer Center core RPPA facility for RPPA analysis (Table S5). Three biological replicates for each sample were generated.
Nomenclatures on the RPPA heatmaps: name_of_antibody.species_of_antibody.status_of_antibody. V - antibody validated; C - validation of antibody in progress; Q - antibody nonspecific; E – under evaluation; antibodies raised in M - mouse, G - goat, R - rabbit, or T - rat.

CN(C)c1cccc(Nc2cc(-c3ccccc3)nc(C3CCNCC3)n2)c1 [ARN22089, N1,N1-dimethyl-N3-(6-phenyl-2-(piperidin-4-yl)pyrimidin-4-yl)benzene-1,3-diamine]
RPPA EGFR_pY1068.R.C (5 uM, single samples): 1.000 and 0.953 and 1.026 | RPPA EGFR_pY1173.R.V (5 uM, single samples): 0.975 and 1.083 and 1.079 | RPPA EMA.M.C (5 uM, single samples): 1.076 and 0.967 and 1.014 | RPPA ENY2.M.C (5 uM, single samples): 0.948 and 0.847 | RPPA ER.a.R.V (5 uM, single samples): 0.800 and 1.157 and 1.137 | RPPA ER.a_pS118.R.V (5 uM, single samples): 0.923 and 1.516 and 1.141 | RPPA ERCC1.R.C (5 uM, single samples): 1.055 and 0.895 and 0.971 | RPPA ERCC5.R.C (5 uM, single samples): 1.027 and 0.974 and 0.973 | RPPA ERRalpha.R.V (5 uM, single samples): 1.078 and 0.970 and 0.952 | RPPA EVI1.R.V (5 uM, single samples): 0.942 and 0.941 | RPPA Elk1_pS383.R.C (5 uM, single samples): 0.946 and 1.013 and 1.129 | RPPA Enolase.1.R.V (5 uM, single samples): 1.024 and 0.893 and 0.818 | RPPA Enolase.2.R.V (5 uM, single samples): 0.995 and 0.946 | RPPA EphA2.R.V (5 uM, single samples): 0.776 and 1.046 | RPPA EphA2_pS897.R.C (5 uM, single samples): 0.644 and 1.190 and 1.055 | RPPA EphA2_pY588.R.C (5 uM, single samples): 0.942 and 0.920 | RPPA Erk5.R.V (5 uM, single samples): 1.097 and 1.135 | RPPA Ets.1.R.V (5 uM, single samples): 1.185 and 0.950 and 0.594 | RPPA FAK.R.C (5 uM, single samples): 0.858 and 1.217 and 0.941 | RPPA FAK_pY397.R.V (5 uM, single samples): 1.026 and 0.959 and 1.059 | RPPA FANCD2.R.V (5 uM, single samples): 0.883 and 1.063 | RPPA FASN.R.V (5 uM, single samples): 1.017 and 0.767 | RPPA FGF.basic.R.C (5 uM, single samples): 0.868 and 1.191 | RPPA FN14.R.C (5 uM, single samples): 0.857 and 1.226 and 1.168 | RPPA FOXM1.R.V (5 uM, single samples): 0.885 | RPPA FOXO3.R.V (5 uM, single samples): 0.861 and 0.945 and 1.100 | RPPA FRS2.alpha_pY196.R.V (5 uM, single samples): 0.930 and 0.961 and 0.957 | RPPA FTO.R.V (5 uM, single samples): 1.124 and 0.945 and 0.752 | RPPA FoxO3a_pS318_S321.R.C (5 uM, single samples): 0.918 and 0.939 | RPPA G6PD.R.V (5 uM, single samples): 0.943 and 0.965 | RPPA GATA3.M.V (5 uM, single samples): 0.797 and 0.715 | RPPA GATA6.R.V (5 uM, single samples): 0.919 and 1.005 | RPPA GCLC.R.C (5 uM, single samples): 1.024 and 1.110 and 0.894 | RPPA GCLM.R.V (5 uM, single samples): 0.926 and 0.954 | RPPA GCN5L2.R.V (5 uM, single samples): 0.871 and 1.148 | RPPA GGPS1.M.V (5 uM, single samples): 0.934 and 0.780 | RPPA GRB2.R.V (5 uM, single samples): 0.928 and 1.049 and 1.170 | RPPA GRB7.R.V (5 uM, single samples): 0.960 and 1.157 and 0.957 | RPPA GSK.3B.R.C (5 uM, single samples): 1.001 and 1.019 | RPPA GSK.3a.b.M.V (5 uM, single samples): 0.936 and 0.817 | RPPA GSK.3a.b_pS21_S9.R.V (5 uM, single samples): 0.866 and 1.380 and 0.704 | RPPA Gab2.R.V (5 uM, single samples): 1.251 and 0.896 and 0.910 | RPPA Gli1.R.C (5 uM, single samples): 1.000 and 0.967 | RPPA Gli3.R.C (5 uM, single samples): 0.979 and 1.003 and 0.745 | RPPA Glucocorticoid.Receptor.R.V (5 uM, single samples): 1.035 and 1.000 and 1.021 | RPPA Glutamate.D1.2.R.V (5 uM, single samples): 0.976 and 0.943 and 0.801 | RPPA Glutaminase.R.C (5 uM, single samples): 0.948 and 1.063 and 0.715 | RPPA Granzyme.B.R.V (5 uM, single samples): 0.964 and 1.146 | RPPA Grp75.R.C (5 uM, single samples): 0.944 and 0.963 | RPPA Gys.R.V (5 uM, single samples): 0.967 and 1.080 | RPPA Gys_pS641.R.V (5 uM, single samples): 0.994 and 1.246 and 0.822 | RPPA H2AX_pS139.R.C (5 uM, single samples): 0.914 and 1.103 | RPPA H2AX_pS140.M.C (5 uM, single samples): 1.104 and 0.895 and 0.770 | RPPA HER2.M.V (5 uM, single samples): 0.948 and 0.899 | RPPA HER2_pY1248.R.V (5 uM, single samples): 0.827 and 1.156 | RPPA HER3.R.V (5 uM, single samples): 0.886 and 0.834 | RPPA HER3_pY1289.R.C (5 uM, single samples): 0.992 and 0.888 | RPPA HES1.R.V (5 uM, single samples): 1.367 and 1.154 | RPPA Heregulin.R.V (5 uM, single samples): 0.832 and 1.116 and 1.160 | RPPA eEF2K.R.V (5 uM, single samples): 0.918 and 0.788 | RPPA eIF4E.R.V (5 uM, single samples): 0.941 and 1.515 and 0.898 | RPPA eIF4E_pS209.R.V (5 uM, single samples): 0.935 and 1.281 and 0.858 | RPPA eIF4G.R.C (5 uM, single samples): 1.030 and 0.956 and 1.155 | RPPA MYH11.R.C Average (10 uM): 1.243 | RPPA Myosin.IIa.R.C Average (10 uM): 0.941 | RPPA Myosin.IIa_pS1943.R.V Average (10 uM): 1.022 | RPPA Myt1.R.C Average (10 uM): 0.989 | RPPA N.Cadherin.R.V Average (10 uM): 1.064 | RPPA N.Ras.M.V Average (10 uM): 0.991 | RPPA NDRG1_pT346.R.V Average (10 uM): 1.015 | RPPA NDUFB4.R.V Average (10 uM): 1.035 | RPPA NRF2.R.C Average (10 uM): 0.996 | RPPA Notch1.R.V Average (10 uM): 1.064 | RPPA Notch1.cleaved.R.V Average (10 uM): 0.926 | RPPA Notch3.R.C Average (10 uM): 1.098 | RPPA Oct.4.R.C Average (10 uM): 1.008 | RPPA P.Cadherin.R.C Average (10 uM): 0.973 | RPPA PAI.1.M.V Average (10 uM): 1.014 | RPPA PAICS.R.C Average (10 uM): 0.920 | RPPA PAK1.R.V Average (10 uM): 0.961 | RPPA PAK4.R.V Average (10 uM): 1.063 | RPPA PAK_pS474_S602_S560.R.V Average (10 uM): 1.085 | RPPA PAK_pT423_T402.R.C Average (10 uM): 0.987 | RPPA PAR.R.C Average (10 uM): 0.480 | RPPA PARG.R.C Average (10 uM): 0.970 | RPPA PARP.R.V Average (10 uM): 1.017 | RPPA PAX6.R.V Average (10 uM): 1.003 | RPPA PCNA.M.C Average (10 uM): 0.987 | RPPA PD.1.R.V Average (10 uM): 1.058 | RPPA PD.L1.R.C Average (10 uM): 0.976 | RPPA PDH.M.V Average (10 uM): 1.031 | RPPA PDHA1.R.V Average (10 uM): 0.986 | RPPA PDHK1.R.C Average (10 uM): 0.952 | RPPA PDK1_pS241.R.V Average (10 uM): 0.942 | RPPA PEA.15.R.V Average (10 uM): 0.922 | RPPA PERK.R.V Average (10 uM): 1.010 | RPPA PGM1.R.V Average (10 uM): 0.998 | RPPA PHLPP.R.V Average (10 uM): 1.083 | RPPA PI3K.p85.R.C Average (10 uM): 1.062 | RPPA PI3K.p110.a.R.C Average (10 uM): 0.904 | RPPA PI3K.p110.b.M.C Average (10 uM): 0.987 | RPPA PKA.a.R.V Average (10 uM): 0.877 | RPPA PKC.a.b.II_pT638_T641.R.V Average (10 uM): 0.910 | RPPA PKC.b.II_pS660.R.V Average (10 uM): 1.018 | RPPA PKCa.R.V Average (10 uM): 0.991 | RPPA PKM2.R.C Average (10 uM): 0.940 | RPPA PLC.gamma1.R.V Average (10 uM): 1.083 | RPPA PLC.gamma1_pS1248.R.V Average (10 uM): 0.999 | RPPA PLK1.R.C Average (10 uM): 0.905 | RPPA PR.R.V Average (10 uM): 1.064 | RPPA PRAS40.M.C Average (10 uM): 1.049 | RPPA PRAS40_pT246.R.V Average (10 uM): 0.957 | RPPA Patched.R.C Average (10 uM): 0.971 | RPPA Paxillin.R.C Average (10 uM): 0.830 | RPPA Pdcd4.R.C Average (10 uM): 0.977 | RPPA Porin.M.V Average (10 uM): 1.020 | RPPA p21.R.C Average (10 uM): 1.010 | RPPA p27.Kip1.R.C Average (10 uM): 1.046 | RPPA p27_pT157.R.C Average (10 uM): 1.014 | RPPA p27_pT198.R.V Average (10 uM): 1.168 | RPPA p38.MAPK.R.V Average (10 uM): 0.975 | RPPA p38.a.M.V Average (10 uM): 1.028 | RPPA p53.R.C Average (10 uM): 0.908 | RPPA p70.S6K1.R.V Average (10 uM): 0.918 | RPPA p70.S6K_pT389.R.V Average (10 uM): 0.996 | RPPA p90RSK_pT573.R.C Average (10 uM): 1.053 | RPPA A.Raf.R.V (10 uM, 10W1): 0.962 | RPPA ACC1.R.C (10 uM, 10W1): 1.063 | RPPA ACC_pS79.R.V (10 uM, 10W1): 0.772 | RPPA ACLY_pS455.R.V (10 uM, 10W1): 1.099 | RPPA ACSL1.R.V (10 uM, 10W1): 0.988 | RPPA ACVRL1.R.C (10 uM, 10W1): 1.018 | RPPA ADAR1.M.V (10 uM, 10W1): 1.194 | RPPA ALKBH5.R.V (10 uM, 10W1): 0.984 | RPPA AMPK.a2_pS345.R.V (10 uM, 10W1): 1.028 | RPPA AMPKa.R.C (10 uM, 10W1): 0.972 | RPPA AMPKa_pT172.R.C (10 uM, 10W1): 0.665 | RPPA AR.R.V (10 uM, 10W1): 0.830 | RPPA ASNS.R.V (10 uM, 10W1): 0.786 | RPPA ATM_pS1981.R.V (10 uM, 10W1): 1.131 | RPPA ATP5A.M.C (10 uM, 10W1): 0.979 | RPPA ATP5H.R.V (10 uM, 10W1): 1.113 | RPPA ATRX.R.C (10 uM, 10W1): 1.033 | RPPA ATR_pS428.R.C (10 uM, 10W1): 0.934 | RPPA AceCS1.R.V (10 uM, 10W1): 0.931 | RPPA Akt1.R.V (10 uM, 10W1): 0.892 | RPPA Akt1_pS473.R.V (10 uM, 10W1): 0.970 | RPPA Akt2.R.V (10 uM, 10W1): 0.959 | RPPA Akt2_pS474.R.C (10 uM, 10W1): 1.062 | RPPA Akt.R.V (10 uM, 10W1): 0.917 | RPPA Akt_pS473.R.V (10 uM, 10W1): 1.128 | RPPA Akt_pT308.R.V (10 uM, 10W1): 0.936 | RPPA Ambra1_pS52.R.C (10 uM, 10W1): 1.051 | RPPA Annexin.I.M.V (10 uM, 10W1): 1.059 | RPPA Annexin.VII.M.V (10 uM, 10W1): 1.077 | RPPA Atg3.R.V (10 uM, 10W1): 0.970 | RPPA Atg4B.R.C (10 uM, 10W1): 0.890 | RPPA Atg5.R.C (10 uM, 10W1): 0.920 | RPPA Atg7.R.V (10 uM, 10W1): 0.855 | RPPA Aurora.A.R.C (10 uM, 10W1): 0.735 | RPPA Aurora.ABC_pT288_pT232_pT198.R.C (10 uM, 10W1): 0.857 | RPPA Aurora.B.R.V (10 uM, 10W1): 1.102 | RPPA Axl.R.V (10 uM, 10W1): 0.724
